Reference: patent US10251869B2, “Compositions and methods of inhibiting metallo-β-lactamases” (priority 2014, dated 2019)
In brackets after ≈: the same amount, converted by molar mass. Like-named read-outs stand apart in the source and are kept apart here.

Tests used:
VIM-24 [1] = biological target: T1, VIM-24 (Escherichia coli, UniProt Q5U7L7, R205L); experiment: Cefepime and ceftazidime hydrolysis in periplasm preparations, VIM-24; assay type: biochemical; conditions: 800 μM cefepime or 400 μM ceftazidime, 25° C.
T1 construct: which corresponds to cleavage after residues 20 (plus an additional Met residue on the N-terminus); made in house; host or cells: E. coli BL21(DE3) pLys, plasmid pET-24a(+)-blaVIM-24-S21
Procedure: (§1) Additionally, cefepime and ceftazidime hydrolysis were measured using periplasm preparations, as previously described. Briefly, periplasmic preparations of E. coli DH10B pBC SK (−) harboring blaVIM-2 or blaVIM-24 were obtained by osmotic shock with chloroform, and MBL production assessed by immunoblotting. Initial velocities of hydrolysis at high substrate concentrations (800 μM for cefepime and 400 μM for ceftazidime) were measured using equal amounts of both β-lactamases in 15 mM HEPES pH 7.5, 200 mM NaCl, supplemented with 50 μM ZnSO4, at 25° C.

[2] = tested on: E. coli DH10B pBCSK(−) producing R228Q variant; experiment: MIC by agar dilution, E. coli DH10B producing VIM-2 R228Q; assay type: cell-based; conditions: Escherichia coli
Procedure: (§2) E. coli DH10B (Invitrogen, Carlsbad, Calif.) was used as a host strain for pBCSK (−) blaVIM-2, and to obtain a mutant library at position 228 by site-saturation mutagenesis, using the QuickChange XL Site-directed Mutagenesis Kit (Stratagene). Briefly, primers that capture all 19 variants at MBL position 228 were designed and PCR mutagenic reactions were conducted using pBCSK (−) blaVIM-2 as a template, and transformed into E. coli DH10B. Single colonies were selected for plasmid purification, and successful mutagenesis was verified by complete DNA sequencing.
(§3) The effect of Zn^2+ availability was also tested by agar dilution using MH supplemented with 250 μM ZnSO4 or 5 μM EDTA. Reported values are the mode of at least 3 biological replicates.

E. coli pBC SK(−) = experiment: MIC by agar dilution, E. coli DH10B host with empty phagemid; assay type: cell-based; conditions: Escherichia coli
Procedure: as §2, §3

VIM-2 [3] = biological target: T2, VIM-2 (Escherichia coli, UniProt Q5U7L7); experiment: Cefepime and ceftazidime hydrolysis in periplasm preparations, VIM-2; assay type: biochemical, P. aeruginosa; conditions: 800 μM cefepime or 400 μM ceftazidime, 25° C.
T2 construct: expressed in transfected cells; host or cells: E. coli DH10B carrying pBC SK(-) blaVIM-2; periplasmic extract by osmotic shock with chloroform
Procedure: as §1

[4] = tested on: E. coli DH10B pBCSK(−) producing R228K variant; experiment: MIC by agar dilution, E. coli DH10B producing VIM-2 R228K; assay type: cell-based; conditions: Escherichia coli
Procedure: as §2, §3

[5] = tested on: E. coli DH10B pBCSK(−) producing R228P variant; experiment: MIC by agar dilution, E. coli DH10B producing VIM-2 R228P; assay type: cell-based; conditions: Escherichia coli
Procedure: as §2, §3

[6] = tested on: E. coli DH10B pBCSK(−) producing R228Y variant; experiment: MIC by agar dilution, E. coli DH10B producing VIM-2 R228Y; assay type: cell-based; conditions: Escherichia coli
Procedure: as §2, §3

[7] = tested on: E. coli DH10B pBCSK(−) producing VIM-24 (R228L); experiment: MIC by agar dilution, E. coli DH10B producing VIM-24; assay type: cell-based; conditions: Escherichia coli
Procedure: as §2, §3

[8] = tested on: E. coli DH10B pBCSK(−) producing R228M variant; experiment: MIC by agar dilution, E. coli DH10B producing VIM-2 R228M; assay type: cell-based; conditions: Escherichia coli
Procedure: as §2, §3

[9] = tested on: E. coli DH10B pBCSK(−) producing VIM-2 (228R); experiment: MIC by agar dilution, E. coli DH10B producing VIM-2; assay type: cell-based
Excerpt: A forward primer containing the SacI restriction site and a reverse primer with the BamHI restriction site were used to amplify blaVIM-2 including the pET24a(+) ribosomal binding site, using plasmid pET-24a(+)-blaVIM-2 as template. The product was then subcloned into phagemid pBCSK (−) (Agilent (Santa Clara, Calif.)) using the above restriction sites, and thus placing the blaVIM-2 open reading frame under control of the lac promoter, to yield phagemid pBCSK (−) blaVIM-2.
as §2, §3

VIM-24 [10] = biological target: T1, VIM-24; experiment: BTZ inhibition kinetics of nitrocefin hydrolysis by VIM-24; assay type: biochemical
Excerpt: (§4) Analysis of BTZ inhibition kinetics. Models involving one, or two-step slow binding were considered to analyze BTZ inhibition of NFC hydrolysis by VIM-2 and VIM-24 (Scheme 1).
(§5) Here E represents the free enzyme, and I the free inhibitor, EI is the final enzyme-inhibitor complex for a single step slow binding mechanism, and E*I is the enzyme-inhibitor complex formed after conformational changes in a two-step slow binding mechanism. Therefore, the dissociation constant for the EI complex (Ki), also called the inhibitor constant, is defined as Ki=k−1/k1; the dissociation constant for the E*I complex (Ki′) is defined as Ki′=k−2/k2, and the overall dissociation constant for the two-step mechanism (Ki*) is defined as Ki*=Ki/(1+([…])).
(§6) The Ki for each inhibitor was determined by direct competition assays under steady-state conditions. The initial velocity was measured in the presence of a constant concentration of enzyme (3 nM for VIM-2 and 4 nM for VIM-24) with increasing concentrations of inhibitor (5-60 μM) against a fixed concentration (5 x KM) of the indicator substrate, NCF, as previously described (42-44). The reactions were started by addition of VIM-2 or VIM-24 to substrate or to mixtures of substrate and inhibitor. Data were linearized by plotting inverse initial steady-state velocities (1/v0) against inhibitor concentration (I). Ki (observed) was determined by dividing the value for the y intercept by the slope of the line. Ki determinations were corrected to account for the affinity of NCF for the β-lactamase according to equation 3.
(§7) Measurements of association rate constants for inhibitor binding were carried out at 25° C. in 10 mM HEPES at pH 7.5 supplemented with 200 mM NaCl, 50 μM […] and 50 μg/ml BSA, in the presence of several concentrations of each compound. Reactions were then initiated by the addition of β-lactamase (3 nM VIM-2 or 4 nM VIM-24) to a mixture of 50 μM NCF and each BTZ without pre-incubation. Inhibitor association rate constants were estimated from linear extrapolation of the observed rate constant for inhibition (kobs), which was obtained by fitting progress curves of NFC hydrolysis to Eq. 4:
(§8) As previously described, the linear dependence of kobs vs. [I] at limiting I concentration approximates second-order rate constant k2/Ki. The observed second-order rate constant also includes an adjustment for competition between inhibitor and substrate binding (Eq. 5).
(§9) Also, vs calculated from the progress curves of NCF hydrolysis for each concentration of inhibitor were used to determine Ki*, according to the relationship shown in equation 6 (5). The value reported is the mean of three velocities±SD.
(§10) To further test the time-dependent inhibition mechanism of inhibitor binding, assays using dilutions of pre-formed complexes were performed. For these experiments, 1 μM of enzyme was incubated with varying concentrations of the inhibitor which allowed for complete inactivation of the enzyme during the 5 min incubation at 25° C. The reactions were then diluted 2,000-fold in 10 mM HEPES at pH 7.5 supplemented with 200 mM NaCl, 50 μM […] and 50 μg/ml BSA, which contained 50 μM NCF. Reactivation of the enzyme based on NCF hydrolysis was monitored over time. Control reaction with the free enzyme was performed in the same fashion.

VIM-2 [11] = biological target: T3, VIM-2 (Pseudomonas aeruginosa, UniProt Q9K2N0); experiment: BTZ inhibition kinetics of nitrocefin hydrolysis by VIM-2; assay type: biochemical, P. aeruginosa
T3 construct: made in house; host or cells: E. coli BL21(DE3) pLys, plasmid pET-24a(+)-blaVIM-2-S21
Excerpt: as §4, §5, §6, §7, §8, §9, §10

MBLs = experiment: Assays in solution after prolonged exposure to oxidative conditions; assay type: biochemical; conditions: data not shown
[12] = MHA supplemented with 5 μM EDTA
[13] = MHA supplemented with 250 μM Zn2+
[14] = MHA supplemented with 5 μM EDTA, read-out: MIC
[15] = MHA supplemented with 250 μM Zn2+, read-out: MIC
[16] = Escherichia coli, MHA supplemented with 5 μM EDTA, read-out: MIC
[17] = Escherichia coli, MHA supplemented with 250 μM Zn2+, read-out: MIC
[18] = rate constant for breakdown of E*I
[19] = rate constant for formation of E*I

Q: With `CO/N=C(\C(=O)N[C@@H]1C(=O)N2C(C(=O)[O-])=C(C[N+]3(C)CCCC3)CS[C@H]12)c1csc(N)n1` [Cefepime] as the molecule, how does the “rate of hydrolysis (initial velocity) in periplasma” value (VIM-24 [1]) read?
A: 5.3e-07 M/s

Q: What about the MIC ([2]; MHA) of the same molecule?
A: 16 mg/L (≈ 33.3 µM)

Q: And the MIC [2, 12]?
A: 16 mg/L (≈ 33.3 µM)

Q: And the MIC [2, 13]?
A: 32 mg/L (≈ 66.6 µM)

Q: And the MIC (E. coli pBC SK(−); MHA)?
A: 0.03 mg/L (≈ 0.0624 µM)

Q: What about the MIC (E. coli pBC SK(−); [12]) of the same molecule?
A: ≤ 0.25 mg/L

Q: And the MIC (E. coli pBC SK(−); [13])?
A: ≤ 0.25 mg/L

Q: What about the “rate of hydrolysis (initial velocity) in periplasma” value (VIM-2 [3]) of the same molecule?
A: 2.9×10^−7 M^s−1

Q: And the MIC ([4]; MHA)?
A: 0.5 mg/L (≈ 1.04 µM)

Q: What about the MIC [4, 12] of the same molecule?
A: ≤ 0.25 mg/L

Q: And the MIC [4, 13]?
A: ≤ 0.25 mg/L

Q: And the MIC ([5]; MHA)?
A: 0.25 mg/L (≈ 0.52 µM)

Q: What about the MIC [5, 12] of the same molecule?
A: ≤ 0.25 mg/L

Q: And the MIC [5, 13]?
A: 0.5 mg/L (≈ 1.04 µM)

Q: And the MIC ([6]; MHA)?
A: 8 mg/L (≈ 16.6 µM)

Q: And the MIC [6, 12]?
A: 8 mg/L (≈ 16.6 µM)

Q: And the MIC [6, 13]?
A: 8 mg/L (≈ 16.6 µM)

Q: And the MIC ([7]; MHA)?
A: 4 mg/L (≈ 8.32 µM)

Q: And the MIC [7, 14]?
A: 4 mg/L (≈ 8.32 µM)

Q: And the MIC [7, 15]?
A: 4 mg/L (≈ 8.32 µM)

Q: What about the MIC ([8]; MHA) of the same molecule?
A: 2 mg/L (≈ 4.16 µM)

Q: And the MIC [8, 12]?
A: 4 mg/L (≈ 8.32 µM)

Q: What about the MIC [8, 13] of the same molecule?
A: 2 mg/L (≈ 4.16 µM)

Q: And the MIC ([9]; Escherichia coli, MHA)?
A: ≤ 0.5 mg/L

Q: And the MIC [9, 16]?
A: 0.5 mg/L (≈ 1.04 µM)

Q: And the MIC [9, 17]?
A: 0.5 mg/L (≈ 1.04 µM)

Q: And the MIC ([9]; MHA)?
A: 0.5 mg/L (≈ 1.04 µM)

Q: What does the source list for `CC(C)(O/N=C(\C(=O)N[C@@H]1C(=O)N2C(C(=O)[O-])=C(C[n+]3ccccc3)CS[C@H]12)c1csc(N)n1)C(=O)O` [Ceftazidime]?
A: rate of hydrolysis (initial velocity) in periplasma (VIM-24 [1]): 4e-07 M/s; MIC ([2]; MHA): 128 mg/L (≈ 234 µM); MIC [2, 12]: 128 mg/L (≈ 234 µM); MIC [2, 13]: 512 mg/L (≈ 937 µM); MIC (E. coli pBC SK(−); MHA): 0.06 mg/L (≈ 0.11 µM); MIC (E. coli pBC SK(−); [12]): ≤ 1 mg/L; MIC (E. coli pBC SK(−); [13]): ≤ 1 mg/L; rate of hydrolysis (initial velocity) in periplasma (VIM-2 [3]): measurable rates of hydrolysis were not obtained; MIC ([4]; MHA): 1 mg/L (≈ 1.83 µM); MIC [4, 12]: ≤ 1 mg/L; MIC [4, 13]: ≤ 1 mg/L; MIC ([5]; MHA): 1 mg/L (≈ 1.83 µM); MIC [5, 12]: ≤ 1 mg/L; MIC [5, 13]: 4 mg/L (≈ 7.32 µM); MIC ([6]; MHA): 64 mg/L (≈ 117 µM); MIC [6, 12]: 64 mg/L (≈ 117 µM); MIC [6, 13]: 128 mg/L (≈ 234 µM); MIC ([7]; MHA): 64 mg/L (≈ 117 µM); MIC [7, 14]: 32 mg/L (≈ 58.5 µM); MIC [7, 15]: 128 mg/L (≈ 234 µM); MIC ([8]; MHA): 128 mg/L (≈ 234 µM); MIC [8, 12]: 64 mg/L (≈ 117 µM); MIC [8, 13]: 256 mg/L (≈ 468 µM); MIC ([9]; Escherichia coli, MHA): 16 mg/L (≈ 29.3 µM); MIC [9, 16]: 16 mg/L (≈ 29.3 µM); MIC [9, 17]: 32 mg/L (≈ 58.5 µM)

Q: `O=C(O)[C@@H]1CS[C@H]2CS[C@H](CS)N21` [L-CS319] was tested. Which “k−2” value (VIM-24 [10]; [18]) did it give?
A: 0.001 ± 1 × 10^−3 s^−1

Q: And the k2 (VIM-24 [10]; [19])?
A: 0.06 ± 2 × 10^−3 s−1

Q: What about the Ki (VIM-2 [11]; initial complex EI, NCF as reporter substrate) of the same molecule?
A: 3.7 ± 0.3 µM

Q: And the Ki (VIM-2 [11]; overall dissociation constant of two-step mechanism (E*I))?
A: 0.04 ± 0.01 µM

Q: And the “k−2” value (VIM-2 [11]; [18])?
A: 0.0003 ± 1 × 10^−4 s^−1

Q: And the k2 (VIM-2 [11]; [19])?
A: 0.03 ± 1 × 10^−3 s^−1

Q: What about the “inhibitory activity towards MBLs after prolonged exposure to oxidative conditions” value (MBLs) of the same molecule?
A: abolishes the inhibitory activity
